Key:
[1] = target: CDK2/Cyclin E1 (Homo sapiens, UniProt P24941); assay: CDK2/Cyclin E1 TR-FRET biochemical assay, 0.060 mM ATP; details: 0.15 μM Rb (Ser780)-biotin substrate, 120 min reaction, Table 1
Procedure: (§1) Compounds disclosed herein were tested for inhibition of CDK2/Cyclin E1 or CDK1/Cyclin B1 kinase in an assay based on the time-resolved fluorescence-resonance energy transfer (TR-FRET) methodology. The assay was carried out in 384-well low volume black plates in a reaction mixture containing CDK2/Cyclin E1 or CDK1/Cyclin B1, 0.060 mM ATP for CDK2/Cyclin E1 or 0.015 mM ATP for CDK1/Cyclin B1, 0.15 μM Rb (Ser780)-biotin substrate and 0-10 μM compound in buffer containing 50 mM HEPES pH7.0, 0.02% NaN3, 0.01% BSA, 0.1 mM Orthovanadate, 50 mM MgCl2, 1 mM DTT and 0.005% Tween-20. The kinase was incubated with compound for 60 minutes at room temperature and the reaction was initiated by the addition of ATP and Rb (Ser780)-biotin substrate. After reaction at room temperature for 120 minutes, an equal volume of stop/detection solution was added according to the manufacture's instruction (Cisbio Bioassays). The stop/detection solution contained Streptavidin-XL665 and Anti-pRb (Ser780) mAb-Eu Cryptate in Detection buffer (Cisbio Bioassays). Plates were incubated at room temperature for 60 minutes, and the TR-FRET signals (ex337 nm, em665 nm/620 nm) were recorded on a PHERAstar FSX plate reader (BMG Labtech). The inhibition percentage of CDK2/Cyclin E1 or CDK1/Cyclin B1 kinase activity in presence of increasing concentrations of compounds was calculated based on the ratio of fluorescence at 665 nm to that at 620 nm. The IC50 for each compound was derived from fitting the data to the four-parameter logistic equation by Dotmatics.

[2] = target: CDK1/Cyclin B1 (Homo sapiens, UniProt P06493); assay: CDK1/Cyclin B1 TR-FRET biochemical assay, 0.015 mM ATP; details: 0.15 μM Rb (Ser780)-biotin substrate, 120 min reaction, Table 1
CDK1/Cyclin B1, sequence (P06493 whole entry): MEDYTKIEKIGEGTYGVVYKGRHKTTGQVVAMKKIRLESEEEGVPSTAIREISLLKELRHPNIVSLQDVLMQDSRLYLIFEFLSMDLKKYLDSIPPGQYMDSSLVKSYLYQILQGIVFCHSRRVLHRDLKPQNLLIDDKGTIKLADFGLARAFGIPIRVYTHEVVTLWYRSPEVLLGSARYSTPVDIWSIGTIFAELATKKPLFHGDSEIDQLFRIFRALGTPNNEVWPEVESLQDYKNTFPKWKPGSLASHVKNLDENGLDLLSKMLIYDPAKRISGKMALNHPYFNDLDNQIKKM
CDK1/Cyclin B1, sequence (P14635 whole entry partner): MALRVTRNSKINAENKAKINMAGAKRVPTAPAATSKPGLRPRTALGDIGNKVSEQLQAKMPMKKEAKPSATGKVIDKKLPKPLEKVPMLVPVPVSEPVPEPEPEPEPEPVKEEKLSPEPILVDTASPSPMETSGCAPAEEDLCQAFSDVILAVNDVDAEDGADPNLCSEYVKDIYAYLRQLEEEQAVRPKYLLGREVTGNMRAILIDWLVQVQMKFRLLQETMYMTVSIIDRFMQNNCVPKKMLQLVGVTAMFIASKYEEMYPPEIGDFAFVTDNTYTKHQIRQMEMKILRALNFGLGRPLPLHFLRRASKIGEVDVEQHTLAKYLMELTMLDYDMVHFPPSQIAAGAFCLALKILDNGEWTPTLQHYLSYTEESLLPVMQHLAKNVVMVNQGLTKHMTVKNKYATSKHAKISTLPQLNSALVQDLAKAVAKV
Procedure: as §1

Structure (SMILES)	IC50 [1] [nM]	IC50 [2] [nM]
CC(C)c1cncc(O[C@@H]2CC[C@H](c3cc(Nc4ccc5c(c4F)CNS5(=O)=O)n[nH]3)C2)c1 (relative stereo) [Example 44, cis-4-fluoro-5-((5-(3-((5-isopropylpyridin-3-yl)oxy)cyclopentyl)-1H-pyrazol-3-yl)amino)-2,3-dihydrobenzo[d]isothiazole 1,1-dioxide]	1400	8340
O=S1(=O)NCc2c1ccc(Nc1cc([C@H]3CC[C@@H](Oc4nnccc4C4CCC4)C3)[nH]n1)c2F (relative stereo) [Example 35, cis-5-((5-(3-((4-cyclobutylpyridazin-3-yl)oxy)cyclopentyl)-1H-pyrazol-3-yl)amino)-4-fluoro-2,3-dihydrobenzo[d]isothiazole 1,1-dioxide]	2.6	35
CC(C)N1CCN([C@H]2CC[C@@H](c3cc(Nc4ccc5c(c4F)CNS5(=O)=O)n[nH]3)C2)C1=O (relative stereo) [Example 81, cis-1-(3-(3-((4-fluoro-1,1-dioxido-2,3-dihydrobenzo[d]isothiazol-5-yl)amino)-1H-pyrazol-5-yl)cyclopentyl)-3-isopropylimidazolidin-2-one]	1190	> 10000
O=S1(=O)NCc2c1ccc(Nc1cc([C@H]3CC[C@@H](Oc4n[nH]c5ccccc45)C3)[nH]n1)c2F (relative stereo) [Example 67, cis-5-((5-(3-((1H-indazol-3-yl)oxy)cyclopentyl)-1H-pyrazol-3-yl)amino)-4-fluoro-2,3-dihydrobenzo[d]isothiazole 1,1-dioxide]	54	2150
O=S1(=O)NCc2c1ccc(Nc1cc([C@H]3CC[C@@H](Oc4cc(C(F)(F)F)n[nH]4)C3)[nH]n1)c2F (relative stereo) [Example 69, cis-4-fluoro-5-((5-(3-((3-(trifluoromethyl)-1H-pyrazol-5-yl)oxy)cyclopentyl)-1H-pyrazol-3-yl)amino)-2,3-dihydrobenzo[d]isothiazole 1,1-dioxide]	829	> 10000
CC(C)(C)c1cnc([C@@H]2CC[C@H](c3cc(Nc4ccc5c(c4F)CS(=O)(=O)N5)n[nH]3)C2)o1 (relative stereo) [Example 145, cis-5-((5-(3-(5-(tert-butyl)oxazol-2-yl)cyclopentyl)-1H-pyrazol-3-yl)amino)-4-fluoro-1,3-dihydrobenzo[c]isothiazole 2,2-dioxide]	3.3	11
O=S1(=O)NCc2c1ccc(Nc1cc([C@H]3CC[C@@H](Oc4nnccc4C4CC4)C3)[nH]n1)c2F (relative stereo) [Example 29, cis-5-((5-(3-((4-cyclopropylpyridazin-3-yl)oxy)cyclopentyl)-1H-pyrazol-3-yl)amino)-4-fluoro-2,3-dihydrobenzo[d]isothiazole 1,1-dioxide]	2.9	35
CC(C)n1ccn([C@H]2CC[C@@H](c3cc(Nc4ccc5c(c4F)CNS5(=O)=O)n[nH]3)C2)c1=O (relative stereo) [Example 83, cis-1-(3-(3-((4-fluoro-1,1-dioxido-2,3-dihydrobenzo[d]isothiazol-5-yl)amino)-1H-pyrazol-5-yl)cyclopentyl)-3-isopropyl-1,3-dihydro-2H-imidazol-2-one]	710	> 10000
C=C(C)c1ccncc1O[C@@H]1CC[C@H](c2cc(Nc3ccc4c(c3F)CNS4(=O)=O)n[nH]2)C1 (relative stereo) [Example 43, cis-4-fluoro-5-((5-(3-((4-(prop-1-en-2-yl)pyridin-3-yl)oxy)cyclopentyl)-1H-pyrazol-3-yl)amino)-2,3-dihydrobenzo[d]isothiazole 1,1-dioxide]	4.3	58
O=c1cccnn1[C@H]1CC[C@@H](c2cc(Nc3ccc4c(c3F)CNS4(=O)=O)n[nH]2)C1 (relative stereo) [Example 21, cis-2-(3-(3-((4-fluoro-1,1-dioxido-2,3-dihydrobenzo[d]isothiazol-5-yl)amino)-1H-pyrazol-5-yl)cyclopentyl)pyridazin-3 (2H)-one]	14	142
Cn1cc(O[C@@H]2CC[C@H](c3cc(Nc4ccc5c(c4F)CNS5(=O)=O)n[nH]3)C2)cn1 (relative stereo) [Example 77, cis-4-fluoro-5-((5-(3-((1-methyl-1H-pyrazol-4-yl)oxy)cyclopentyl)-1H-pyrazol-3-yl)amino)-2,3-dihydrobenzo[d]isothiazole 1,1-dioxide]	530	> 10000
Cc1ccnn([C@H]2CC[C@@H](c3cc(Nc4ccc5c(c4F)CNS5(=O)=O)n[nH]3)C2)c1=O (relative stereo) [Example 23, cis-2-(3-(3-((4-fluoro-1,1-dioxido-2,3-dihydrobenzo[d]isothiazol-5-yl)amino)-1H-pyrazol-5-yl)cyclopentyl)-4-methylpyridazin-3 (2H)-one]	132	526
CC(C)c1ccnn([C@H]2CC[C@@H](c3cc(Nc4ccc5c(c4F)CNS5(=O)=O)n[nH]3)C2)c1=O (relative stereo) [Example 26, cis-2-(3-(3-((4-fluoro-1,1-dioxido-2,3-dihydrobenzo[d]isothiazol-5-yl)amino)-1H-pyrazol-5-yl)cyclopentyl)-4-isopropylpyridazin-3 (2H)-one]	140	1690
CCc1ccnnc1O[C@@H]1CC[C@H](c2cc(Nc3ccc4c(c3F)CNS4(=O)=O)n[nH]2)C1 (relative stereo) [Example 25, cis-5-((5-(3-((4-ethylpyridazin-3-yl)oxy)cyclopentyl)-1H-pyrazol-3-yl)amino)-4-fluoro-2,3-dihydrobenzo[d]isothiazole 1,1-dioxide]	1.4	11
CC1(n2cnnc2O[C@@H]2CC[C@H](c3cc(Nc4ccc5c(c4F)CNS5(=O)=O)n[nH]3)C2)CC1 (relative stereo) [Example 58, cis-4-fluoro-5-((5-(3-((4-(1-methylcyclopropyl)-4H-1,2,4-triazol-3-yl)oxy)cyclopentyl)-1H-pyrazol-3-yl)amino)-2,3-dihydrobenzo[d]isothiazole 1,1-dioxide]	269	7200
O=S1(=O)NCc2c1ccc(Nc1cc([C@H]3CC[C@@H](Oc4cn[nH]c4)C3)[nH]n1)c2F (relative stereo) [Example 76, cis-5-((5-(3-((1H-pyrazol-4-yl)oxy)cyclopentyl)-1H-pyrazol-3-yl)amino)-4-fluoro-2,3-dihydrobenzo[d]isothiazole 1,1-dioxide]	53	1610
Cc1ncccc1O[C@@H]1CC[C@H](c2cc(Nc3ccc4c(c3F)CNS4(=O)=O)n[nH]2)C1 (relative stereo) [Example 40, cis-4-fluoro-5-((5-(3-((2-methylpyridin-3-yl)oxy)cyclopentyl)-1H-pyrazol-3-yl)amino)-2,3-dihydrobenzo[d]isothiazole 1,1-dioxide]	19	552
Cc1n[nH]cc1O[C@@H]1CC[C@H](c2cc(Nc3ccc4c(c3F)CNS4(=O)=O)n[nH]2)C1 (relative stereo) [Example 79, cis-4-fluoro-5-((5-(3-((3-methyl-1H-pyrazol-4-yl)oxy)cyclopentyl)-1H-pyrazol-3-yl)amino)-2,3-dihydrobenzo[d]isothiazole 1,1-dioxide]	10	486
O=S1(=O)NCc2c1ccc(Nc1cc([C@H]3CC[C@@H](Oc4ccn[nH]4)C3)[nH]n1)c2F (relative stereo) [Example 62, cis-5-((5-(3-((1H-pyrazol-5-yl)oxy)cyclopentyl)-1H-pyrazol-3-yl)amino)-4-fluoro-2,3-dihydrobenzo[d]isothiazole 1,1-dioxide]	24	571
O=c1ccsn1[C@H]1CC[C@@H](c2cc(Nc3ccc4c(c3F)CNS4(=O)=O)n[nH]2)C1 (relative stereo) [Example 51, cis-2-(3-(3-((4-fluoro-1,1-dioxido-2,3-dihydrobenzo[d]isothiazol-5-yl)amino)-1H-pyrazol-5-yl)cyclopentyl)isothiazol-3 (2H)-one]	214	1770
CC(C)(C)c1cnc([C@@H]2CC[C@H](c3cc(Nc4ccc5c(c4)CS(=O)(=O)N5)n[nH]3)C2)o1 (relative stereo) [Example 135, cis-5-((5-(3-(5-(tert-butyl)oxazol-2-yl)cyclopentyl)-1H-pyrazol-3-yl)amino)-1,3-dihydrobenzo[c]isothiazole 2,2-dioxide]	4.6	11
O=S1(=O)NCc2c1ccc(Nc1cc([C@H]3CC[C@@H](Oc4ccccn4)C3)[nH]n1)c2F (relative stereo) [Example 46, cis-4-fluoro-5-((5-(3-(pyridin-2-yloxy)cyclopentyl)-1H-pyrazol-3-yl)amino)-2,3-dihydrobenzo[d]isothiazole 1,1-dioxide]	419	7450

From patent publication US20260200897A1, “4-((5-(3-(4-(PYRIDIN-2-YL)CYCLOPENTYL)-1H-PYRAZOL-3-YL)AMINO)-BENZENESULFONAMIDE DERIVATIVES AND SIMILAR COMPOUNDS AS CDK INHIBITORS FOR THE TREATMENT OF CANCER” (BeOne Medicines I GmbH, priority 2023, published 2026)
